Measured values published in PubChem BioAssay AID1996.
Converted amounts (≈) assume the structure as drawn.

Conditions: buffer; pH 7.4; 200.0 µM

Q: With COC(=O)C1CN(C(=O)COc2ccccc2C)c2ccccc2O1 (stereo unspecified) as the molecule, how does the solubility kinetic read?
A: 48.8 µg/mL (≈ 143 µM)

Q: For CC1(c2ccccc2Cl)NC(=O)N(CC(=O)N2CCc3ccccc32)C1=O (stereo unspecified), which solubility kinetic is on record?
A: 10.1 µg/mL (≈ 26.3 µM)

Q: For CC(C)NCC(=O)Nc1c2c(nc3ccccc13)CCC2.O=C(O)C(=O)O, which solubility kinetic is on record?
A: > 56 µg/mL

Q: Which solubility kinetic does the source give for O=C(NC1CC1)C1CC(=O)N(c2ccc(F)cc2)C1 (stereo unspecified) here?
A: 37.6 µg/mL (≈ 143 µM)

Q: With Cn1c(N)c(C(=O)COC(=O)CNC(=O)c2ccccc2)c(=O)n(C)c1=O as the molecule, how does the solubility kinetic read?
A: > 56.2 µg/mL

Q: With O=C(O)CC1(CC(=O)Nc2ccccc2N2CCOCC2)CCCC1 as the molecule, how does the solubility kinetic read?
A: > 52 µg/mL

Q: For CCN(CC)C(=O)c1cc(-c2ccc3c(c2)OCO3)on1, which solubility kinetic is on record?
A: 20.8 µg/mL (≈ 72.1 µM)

Q: Which solubility kinetic does the source give for C[C@@H](C(=O)NC1CCCC1)N1C(=O)N2CCc3c([nH]c4ccccc34)[C@@]2(C)C1=O here?
A: 48.7 µg/mL (≈ 123 µM)

Q: For Nc1ncnc2c1ncn2Cc1ccccc1, which solubility kinetic is on record?
A: > 33.8 µg/mL

Q: For CC(C)N(Cc1cc2ccccc2[nH]c1=O)C(=O)c1ccco1, which solubility kinetic is on record?
A: > 46.6 µg/mL

Q: With COc1ccc(CCC(=O)NCC2CCCCC2)cc1OC as the molecule, how does the solubility kinetic read?
A: > 45.8 µg/mL

Q: Which solubility kinetic does the source give for NC(=O)c1oc2ccccc2c1NC(=O)c1ccc([N+](=O)[O-])o1 here?
A: 1.8 µg/mL (≈ 5.71 µM)

Q: With COc1cc(OC)cc(C(=O)Nc2ccc(Nc3ccccc3)cc2)c1 as the molecule, how does the solubility kinetic read?
A: 2.5 µg/mL (≈ 7.18 µM)

Q: Which solubility kinetic does the source give for O=C(CNC(=O)C1CCCCC1)OCC(=O)c1cccc(Cl)c1 here?
A: 46.8 µg/mL (≈ 139 µM)

Q: Which solubility kinetic does the source give for CCc1ccc(N2CN=c3s/c(=C\c4ccccc4)c(=O)n3C2)cc1 here?
A: 8.2 µg/mL (≈ 23.5 µM)

Q: For O=C(CS(=O)(=O)c1ccccc1)Nc1nccs1, which solubility kinetic is on record?
A: > 42.3 µg/mL

Q: With COc1ccccc1OCc1ccc(C(=O)NC(C)c2ccccc2)o1 (stereo unspecified) as the molecule, how does the solubility kinetic read?
A: 38.1 µg/mL (≈ 108 µM)

Q: With O=C(Nc1ccc(N2CCOCC2)cc1N1CCOCC1)c1ccccc1 as the molecule, how does the solubility kinetic read?
A: > 55.1 µg/mL

Q: For Cl.Oc1cccc(Nc2ncnc3c2oc2ccccc23)c1, which solubility kinetic is on record?
A: 2.3 µg/mL

Q: Which solubility kinetic does the source give for Cc1ccsc1C(=O)NCC(C)(C)N1CCOCC1 here?
A: > 42.4 µg/mL

Q: With O=C(CCCc1ccccc1)NCc1ccccc1Cl as the molecule, how does the solubility kinetic read?
A: 32.9 µg/mL (≈ 114 µM)

Q: Which solubility kinetic does the source give for O=C(c1ccc(F)cc1Cl)N1CCC2(CC1)OCCO2 here?
A: > 45 µg/mL

Q: For NS(=O)(=O)c1ccc(NC(=O)CCCC(=O)O)cc1, which solubility kinetic is on record?
A: > 42.9 µg/mL

Q: With CN1CCN(C(=O)C2CCC(C)(C(=O)O)C2(C)C)CC1 (stereo unspecified) as the molecule, how does the solubility kinetic read?
A: 40.5 µg/mL (≈ 143 µM)

Q: Which solubility kinetic does the source give for CCCCCCN1C=CC=C/C1=C\C=C(C#N)C#N here?
A: 3.9 µg/mL (≈ 15.4 µM)

Q: Which solubility kinetic does the source give for Cc1cccc(C)c1NC(=O)CN(C)C(=O)Cn1c(=O)cnc2ccccc21 here?
A: 52.6 µg/mL (≈ 139 µM)

Q: Which solubility kinetic does the source give for CC(C)NC(=O)c1ccc(-n2c(=S)[nH]c3ccccc3c2=O)cc1 here?
A: 3.9 µg/mL (≈ 11.5 µM)

Q: With COC(=O)c1c(C)oc(C)c1S(=O)(=O)N(C)C1CCCCC1 as the molecule, how does the solubility kinetic read?
A: 38.9 µg/mL (≈ 118 µM)

Q: With O=C(C1CC(=O)N(c2ccccc2)C1)N1CCCCCC1 (stereo unspecified) as the molecule, how does the solubility kinetic read?
A: > 43 µg/mL

Q: With Cc1ccc(C(C)C)c(OCCOCCN2CCNCC2)c1.O=C(O)C(=O)O as the molecule, how does the solubility kinetic read?
A: 52.1 µg/mL

Q: Which solubility kinetic does the source give for Cc1ccc(OS(=O)(=O)c2cn(C)c(=O)n(C)c2=O)cc1C here?
A: > 48.7 µg/mL

Q: For COc1ccc(CCNS(=O)(=O)c2cccc([N+](=O)[O-])c2)cc1, which solubility kinetic is on record?
A: 42.8 µg/mL (≈ 127 µM)

Q: For O=C(CN1C(=O)C2CCCCC2C1=O)Nc1ccccc1C(=O)O (stereo unspecified), which solubility kinetic is on record?
A: > 49.6 µg/mL

Q: For O=C(Nc1ccccc1C(=O)NCCCN1CCOCC1)c1ccc(F)cc1F, which solubility kinetic is on record?
A: 59.6 µg/mL (≈ 148 µM)

Q: Which solubility kinetic does the source give for COc1cc(CN2CCC(CO)(CCOc3ccccc3)CC2)cc(OC)c1 here?
A: 52.2 µg/mL (≈ 135 µM)

Q: For O=C(c1cc([N+](=O)[O-])ccc1Cl)N1CCc2ccccc21, which solubility kinetic is on record?
A: 1.6 µg/mL (≈ 5.29 µM)

Q: For CC(OC(=O)Cc1c[nH]c2ccccc12)C(=O)NC1(C#N)CCCCC1 (stereo unspecified), which solubility kinetic is on record?
A: > 53 µg/mL

Q: For O=C(CCc1ccccc1)Nc1cc2c3c(c1)CC(=O)N3CCC2, which solubility kinetic is on record?
A: > 48.1 µg/mL

Q: For N#Cc1ccccc1NC(=O)Nc1ccccc1, which solubility kinetic is on record?
A: > 35.6 µg/mL

Q: Which solubility kinetic does the source give for O=[N+]([O-])c1ccc(-n2ccnc2)cc1 here?
A: > 28.4 µg/mL

Q: With Cc1ccc(N2C(=O)Cc3ccccc3C2=O)cc1 as the molecule, how does the solubility kinetic read?
A: > 37.7 µg/mL

Q: With CC(=O)N1C(C)(C)CC(=NOC(=O)c2ccc(C)cc2)CC1(C)C as the molecule, how does the solubility kinetic read?
A: > 49.6 µg/mL

Q: For COc1ccc(S(=O)(=O)N2CCOCC2)cc1NC(=O)CN1C(=O)CN(C)C1=O, which solubility kinetic is on record?
A: > 64 µg/mL

Q: For CC(=O)Nc1nonc1NC(=O)COc1ccccc1, which solubility kinetic is on record?
A: > 41.4 µg/mL

Q: For CC(C)c1ccc(NC(=O)Cn2c(=O)oc3cccnc32)cc1, which solubility kinetic is on record?
A: 7.7 µg/mL (≈ 24.7 µM)

Q: With Cl.OC(CN1CCNCC1)Cn1c2ccccc2c2ccccc21 (stereo unspecified) as the molecule, how does the solubility kinetic read?
A: 54.4 µg/mL
